# Laboratory results as given in PubChem BioAssay (NCI).
#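 Each compound was tested at five concentrations against cells in 96-well plates for 48 hours. GI50 is the concentration that inhibits growth by half. The concentration for full growth arrest is given as TGI.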
# How the values were obtained:
# Assay in all cases: DTP human tumour cell line panel, 48 h
# MDA-MB-435 = tested on: MDA-MB-435
# HL-60(TB) leukemia = tested on: HL-60(TB) leukemia
# HS 578T breast = tested on: HS 578T breast
# EKVX NSCLC = tested on: EKVX NSCLC
# SK-MEL-5 melanoma = tested on: SK-MEL-5 melanoma
# SK-MEL-28 melanoma = tested on: SK-MEL-28 melanoma
# MOLT-4 leukemia = tested on: MOLT-4 leukemia
# UO-31 renal = tested on: UO-31 renal
# NCI/ADR-RES ovarian = tested on: NCI/ADR-RES ovarian
# SF-268 CNS = tested on: SF-268 CNS
# M14 melanoma = tested on: M14 melanoma
# NCI-H23 lung = tested on: NCI-H23 lung
# HCC-2998 colon = tested on: HCC-2998 colon
# U251 CNS = tested on: U251 CNS
# IGROV1 ovarian = tested on: IGROV1 ovarian
# OVCAR-8 ovarian = tested on: OVCAR-8 ovarian
# RPMI-8226 leukemia = tested on: RPMI-8226 leukemia
# NCI-H226 lung = tested on: NCI-H226 lung
# BT-549 breast = tested on: BT-549 breast
# OVCAR-5 ovarian = tested on: OVCAR-5 ovarian
# SF-539 CNS = tested on: SF-539 CNS
# UACC-62 melanoma = tested on: UACC-62 melanoma
# HCT-15 colon = tested on: HCT-15 colon
# HT29 colon = tested on: HT29 colon
# COLO 205 colon = tested on: COLO 205 colon
# HOP-92 NSCLC = tested on: HOP-92 NSCLC
# T-47D breast = tested on: T-47D breast
# OVCAR-4 ovarian = tested on: OVCAR-4 ovarian
# OVCAR-3 ovarian = tested on: OVCAR-3 ovarian
# 786-0 renal = tested on: 786-0 renal
# NCI-H522 lung = tested on: NCI-H522 lung
# CAKI-1 renal = tested on: CAKI-1 renal
# SN12C renal = tested on: SN12C renal
# MCF7 breast = tested on: MCF7 breast
# K-562 leukemia = tested on: K-562 leukemia
# TK-10 renal = tested on: TK-10 renal
# LOX IMVI melanoma = tested on: LOX IMVI melanoma
# SNB-19 CNS = tested on: SNB-19 CNS
# SF-295 CNS = tested on: SF-295 CNS
# RXF 393 renal = tested on: RXF 393 renal
# KM12 colon = tested on: KM12 colon
# UACC-257 melanoma = tested on: UACC-257 melanoma
# HCT-116 colon = tested on: HCT-116 colon
# SK-OV-3 ovarian = tested on: SK-OV-3 ovarian
# ACHN renal = tested on: ACHN renal
# A549 NSCLC = tested on: A549 NSCLC
# A498 renal = tested on: A498 renal
# NCI-H460 lung = tested on: NCI-H460 lung
# HOP-62 NSCLC = tested on: HOP-62 NSCLC
# SK-MEL-2 melanoma = tested on: SK-MEL-2 melanoma
# CCRF-CEM leukemia = tested on: CCRF-CEM leukemia
# SW-620 colon = tested on: SW-620 colon
# PC-3 prostate = tested on: PC-3 prostate
# MALME-3M melanoma = tested on: MALME-3M melanoma
# MDA-MB-231 breast = tested on: MDA-MB-231 breast
# DU-145 prostate = tested on: DU-145 prostate
smiles,measurement,setting,value
COc1cc2c(c(OC)c1OC)-c1c(c3ccc([N+](=O)[O-])cc3c(=O)n1CCCN=[N+]=[N-])C2=O,GI50,MDA-MB-435,> 100 µM
same,TGI,MDA-MB-435,> 100 µM
same,GI50,HL-60(TB) leukemia,> 100 µM
same,TGI,HL-60(TB) leukemia,> 100 µM
same,GI50,HS 578T breast,12.2 µM
same,TGI,HS 578T breast,> 100 µM
same,GI50,EKVX NSCLC,> 100 µM
same,TGI,EKVX NSCLC,> 100 µM
same,GI50,SK-MEL-5 melanoma,> 100 µM
same,TGI,SK-MEL-5 melanoma,> 100 µM
same,GI50,SK-MEL-28 melanoma,> 100 µM
same,TGI,SK-MEL-28 melanoma,> 100 µM
same,GI50,MOLT-4 leukemia,> 100 µM
same,TGI,MOLT-4 leukemia,> 100 µM
same,GI50,UO-31 renal,4.92 µM
same,TGI,UO-31 renal,72.5 µM
same,GI50,NCI/ADR-RES ovarian,45.3 µM
same,TGI,NCI/ADR-RES ovarian,> 100 µM
same,GI50,SF-268 CNS,14.4 µM
same,TGI,SF-268 CNS,80.7 µM
same,GI50,M14 melanoma,34.4 µM
same,TGI,M14 melanoma,> 100 µM
same,GI50,NCI-H23 lung,15.2 µM
same,TGI,NCI-H23 lung,43.6 µM
same,GI50,HCC-2998 colon,> 100 µM
same,TGI,HCC-2998 colon,> 100 µM
same,GI50,U251 CNS,8.36 µM
same,TGI,U251 CNS,23.3 µM
same,GI50,IGROV1 ovarian,0.949 µM
same,TGI,IGROV1 ovarian,33.3 µM
same,GI50,OVCAR-8 ovarian,13.6 µM
same,TGI,OVCAR-8 ovarian,68.8 µM
same,GI50,RPMI-8226 leukemia,> 100 µM
same,TGI,RPMI-8226 leukemia,> 100 µM
same,GI50,NCI-H226 lung,28.4 µM
same,TGI,NCI-H226 lung,71.8 µM
same,GI50,BT-549 breast,47.5 µM
same,TGI,BT-549 breast,> 100 µM
same,GI50,OVCAR-5 ovarian,> 100 µM
same,TGI,OVCAR-5 ovarian,> 100 µM
same,GI50,SF-539 CNS,13.5 µM
same,TGI,SF-539 CNS,43.1 µM
same,GI50,UACC-62 melanoma,32.5 µM
same,TGI,UACC-62 melanoma,> 100 µM
same,GI50,HCT-15 colon,44.6 µM
same,TGI,HCT-15 colon,> 100 µM
same,GI50,HT29 colon,94 µM
same,TGI,HT29 colon,> 100 µM
same,GI50,COLO 205 colon,> 100 µM
same,TGI,COLO 205 colon,> 100 µM
same,GI50,HOP-92 NSCLC,21.5 µM
same,TGI,HOP-92 NSCLC,80.2 µM
same,GI50,T-47D breast,34.8 µM
same,TGI,T-47D breast,> 100 µM
same,GI50,OVCAR-4 ovarian,19.4 µM
same,TGI,OVCAR-4 ovarian,60.9 µM
same,GI50,OVCAR-3 ovarian,45.2 µM
same,TGI,OVCAR-3 ovarian,> 100 µM
same,GI50,786-0 renal,15.4 µM
same,TGI,786-0 renal,43.8 µM
same,GI50,NCI-H522 lung,0.251 µM
same,TGI,NCI-H522 lung,5.71 µM
same,GI50,CAKI-1 renal,50.3 µM
same,TGI,CAKI-1 renal,> 100 µM
same,GI50,SN12C renal,30.4 µM
same,TGI,SN12C renal,> 100 µM
same,GI50,MCF7 breast,1.37 µM
same,TGI,MCF7 breast,> 100 µM
same,GI50,K-562 leukemia,> 100 µM
same,TGI,K-562 leukemia,> 100 µM
same,GI50,TK-10 renal,13.1 µM
same,TGI,TK-10 renal,33.1 µM
same,GI50,LOX IMVI melanoma,28.5 µM
same,TGI,LOX IMVI melanoma,> 100 µM
same,GI50,SNB-19 CNS,29.7 µM
same,TGI,SNB-19 CNS,98.3 µM
same,GI50,SF-295 CNS,18.5 µM
same,TGI,SF-295 CNS,> 100 µM
same,GI50,RXF 393 renal,4.81 µM
same,TGI,RXF 393 renal,47.3 µM
same,GI50,KM12 colon,> 100 µM
same,TGI,KM12 colon,> 100 µM
same,GI50,UACC-257 melanoma,0.0793 µM
same,TGI,UACC-257 melanoma,11.9 µM
same,GI50,HCT-116 colon,14.2 µM
same,TGI,HCT-116 colon,38 µM
same,GI50,SK-OV-3 ovarian,23.1 µM
same,TGI,SK-OV-3 ovarian,55.2 µM
same,GI50,ACHN renal,14.1 µM
same,TGI,ACHN renal,39.6 µM
same,GI50,A549 NSCLC,0.36 µM
same,TGI,A549 NSCLC,> 100 µM
same,GI50,A498 renal,11.9 µM
same,TGI,A498 renal,29.6 µM
same,GI50,NCI-H460 lung,12.3 µM
same,TGI,NCI-H460 lung,> 100 µM
same,GI50,HOP-62 NSCLC,15.4 µM
same,TGI,HOP-62 NSCLC,38.1 µM
same,GI50,SK-MEL-2 melanoma,2.49 µM
same,TGI,SK-MEL-2 melanoma,22.9 µM
same,GI50,CCRF-CEM leukemia,> 100 µM
same,TGI,CCRF-CEM leukemia,> 100 µM
same,GI50,SW-620 colon,33.6 µM
same,TGI,SW-620 colon,> 100 µM
same,GI50,PC-3 prostate,> 100 µM
same,TGI,PC-3 prostate,> 100 µM
same,GI50,MALME-3M melanoma,23.2 µM
same,TGI,MALME-3M melanoma,96.9 µM
same,GI50,MDA-MB-231 breast,19.1 µM
same,TGI,MDA-MB-231 breast,56.3 µM
same,GI50,DU-145 prostate,71.3 µM
same,TGI,DU-145 prostate,> 100 µM
